Each compound was assayed against T1, Dimer of Gag-Pol polyprotein [501-599] (Human immunodeficiency virus 1, UniProt P03367) (assay: Protease Inhibition Assay). Conditions: not given.
T1 construct: 501-599
Experimental: HIV-1 protease activity was measured by a continuous fluorometric assay. The proteolytic activity can be monitored by the increase in fluorescence intensity, and the protease products were analyzed by HPLC. IC50 values were determined from a dose-response curve, whereas Ki values were obtained by fitting initial rates to a tight-binding inhibition equation.
`CC(C)CN(C(CO)CCCCNC(=O)[C@@H](N)C(c1ccccc1)c1ccccc1)S(=O)(=O)c1ccc(N)cc1` (stereo partly drawn) [(2S)-2-amino-N-[(5R)-5-[(4-aminobenzene)(2-methylpropyl)sulfonamido]-6-hydroxyhexyl]-3,3-diphenylpropanamide] showed an IC50 of 0.5 nM and a Ki of 0.56 nM. `CC(C)CN(C(CO)CCCCNC(=O)[C@@H](NC(=O)C1CCCCC1)C(c1ccccc1)c1ccccc1)S(=O)(=O)c1ccc(N)cc1` (stereo partly drawn) [(2S)-N-[(5R)-5-[(4-aminobenzene)(2-methylpropyl)sulfonamido]-6-hydroxyhexyl]-2-(cyclohexylformamido)-3,3-diphenylpropanamide] was tested, and the IC50 was < 3.8 nM. In the case of `CC(C)CN(C(CO)CCCCNC(=O)[C@@H](NC(=O)C1CC1)C(c1ccccc1)c1ccccc1)S(=O)(=O)c1ccc(N)cc1` (stereo partly drawn) [(2S)-N-[(5R)-5-[(4-aminobenzene)(2-methylpropyl)sulfonamido]-6-hydroxyhexyl]-2-(cyclopropylformamido)-3,3-diphenylpropanamide], the IC50 is reported as 0.43 nM and the Ki is reported as 0.45 nM. With `CC(C)CN(C(CO)CCCCNC(=O)[C@@H](NC(=O)N1CCOCC1)C(c1ccccc1)c1ccccc1)S(=O)(=O)c1ccc(N)cc1` (stereo partly drawn) [(2S)-N-[(5R)-5-[(4-aminobenzene)(2-methylpropyl)sulfonamido]-6-hydroxyhexyl]-2-(morpholin-4-ylcarbonylamino)-3,3-diphenylpropanamide] the IC50 was 0.51 nM and the Ki was 0.55 nM. With `CC(C)CN(C(CO)CCCCNC(=O)[C@@H](NC(=O)c1ccccc1O)C(c1ccccc1)c1ccccc1)S(=O)(=O)c1ccc(N)cc1` (stereo partly drawn) [(2S)-N-[(5R)-5-[(4-aminobenzene)(2-methylpropyl)sulfonamido]-6-hydroxyhexyl]-2-[(2-hydroxyphenyl)formamido]-3,3-diphenylpropanamide] the IC50 was 0.63 nM and the Ki was 0.58 nM. `Cc1ncccc1C(=O)N[C@H](C(=O)NCCCCC(CO)N(CC(C)C)S(=O)(=O)c1ccc(N)cc1)C(c1ccccc1)c1ccccc1` (stereo partly drawn) [(2S)-N-[(5R)-5-[(4-aminobenzene)(2-methylpropyl)sulfonamido]-6-hydroxyhexyl]-2-[(2-methylpyridin-3-yl)formamido]-3,3-diphenylpropanamide] gave an IC50 of 0.4 nM and a Ki of 0.4 nM. With `CC(C)CN(C(CO)CCCCNC(=O)[C@@H](NC(=O)c1ccc([N+](=O)[O-])c(O)c1)C(c1ccccc1)c1ccccc1)S(=O)(=O)c1ccc(N)cc1` (stereo partly drawn) [(2S)-N-[(5R)-5-[(4-aminobenzene)(2-methylpropyl)sulfonamido]-6-hydroxyhexyl]-2-[(3-hydroxy-4-nitrophenyl)formamido]-3,3-diphenylpropanamide] the IC50 was 0.33 nM and the Ki was 0.33 nM. Work on `CC(C)CN(C(CO)CCCCNC(=O)[C@@H](NC(=O)c1cccc(O)c1)C(c1ccccc1)c1ccccc1)S(=O)(=O)c1ccc(N)cc1` (stereo partly drawn) [(2S)-N-[(5R)-5-[(4-aminobenzene)(2-methylpropyl)sulfonamido]-6-hydroxyhexyl]-2-[(3-hydroxyphenyl)formamido]-3,3-diphenylpropanamide] yielded an IC50 of 0.4 nM and a Ki of 0.4 nM. Work on `CC(C)CN(C(CO)CCCCNC(=O)[C@@H](NC(=O)c1ncccc1O)C(c1ccccc1)c1ccccc1)S(=O)(=O)c1ccc(N)cc1` (stereo partly drawn) [(2S)-N-[(5R)-5-[(4-aminobenzene)(2-methylpropyl)sulfonamido]-6-hydroxyhexyl]-2-[(3-hydroxypyridin-2-yl)formamido]-3,3-diphenylpropanamide] yielded an IC50 of 0.9 nM and a Ki of 0.7 nM. `COc1cc(C(=O)N[C@H](C(=O)NCCCCC(CO)N(CC(C)C)S(=O)(=O)c2ccc(N)cc2)C(c2ccccc2)c2ccccc2)ccc1O` (stereo partly drawn) [(2S)-N-[(5R)-5-[(4-aminobenzene)(2-methylpropyl)sulfonamido]-6-hydroxyhexyl]-2-[(4-hydroxy-3-methoxyphenyl)formamido]-3,3-diphenylpropanamide] gave an IC50 of 0.5 nM and a Ki of 0.45 nM. `CC(C)CN(C(CO)CCCCNC(=O)[C@@H](NC(=O)c1ccc(O)c([N+](=O)[O-])c1)C(c1ccccc1)c1ccccc1)S(=O)(=O)c1ccc(N)cc1` (stereo partly drawn) [(2S)-N-[(5R)-5-[(4-aminobenzene)(2-methylpropyl)sulfonamido]-6-hydroxyhexyl]-2-[(4-hydroxy-3-nitrophenyl)formamido]-3,3-diphenylpropanamide] gave an IC50 of 0.56 nM and a Ki of 0.48 nM. Work on `CC(C)CN(C(CO)CCCCNC(=O)[C@@H](NC(=O)c1ccc(O)cc1)C(c1ccccc1)c1ccccc1)S(=O)(=O)c1ccc(N)cc1` (stereo partly drawn) [(2S)-N-[(5R)-5-[(4-aminobenzene)(2-methylpropyl)sulfonamido]-6-hydroxyhexyl]-2-[(4-hydroxyphenyl)formamido]-3,3-diphenylpropanamide] yielded an IC50 of 0.53 nM and a Ki of 0.47 nM. In the case of `CC(C)CN(C(CO)CCCCNC(=O)[C@@H](NC(=O)c1ccc(N)nc1)C(c1ccccc1)c1ccccc1)S(=O)(=O)c1ccc(N)cc1` (stereo partly drawn) [(2S)-N-[(5R)-5-[(4-aminobenzene)(2-methylpropyl)sulfonamido]-6-hydroxyhexyl]-2-[(6-aminopyridin-3-yl)formamido]-3,3-diphenylpropanamide], the IC50 is reported as 0.4 nM and the Ki is reported as 0.5 nM. For `CC(C)CN(C(CO)CCCCNC(=O)[C@@H](NC(=O)c1ccc(=O)[nH]c1)C(c1ccccc1)c1ccccc1)S(=O)(=O)c1ccc(N)cc1` (stereo partly drawn) [(2S)-N-[(5R)-5-[(4-aminobenzene)(2-methylpropyl)sulfonamido]-6-hydroxyhexyl]-2-[(6-hydroxypyridin-3-yl)formamido]-3,3-diphenylpropanamide], the IC50 was 0.5 nM and the Ki was 0.4 nM. In the case of `Cc1ccc(C(=O)N[C@H](C(=O)NCCCCC(CO)N(CC(C)C)S(=O)(=O)c2ccc(N)cc2)C(c2ccccc2)c2ccccc2)cn1` (stereo partly drawn) [(2S)-N-[(5R)-5-[(4-aminobenzene)(2-methylpropyl)sulfonamido]-6-hydroxyhexyl]-2-[(6-methylpyridin-3-yl)formamido]-3,3-diphenylpropanamide], the IC50 is reported as 0.4 nM and the Ki is reported as 0.5 nM. For `CC(C)CN(C(CO)CCCCNC(=O)[C@@H](NC(=O)N(C)C)C(c1ccccc1)c1ccccc1)S(=O)(=O)c1ccc(N)cc1` (stereo partly drawn) [(2S)-N-[(5R)-5-[(4-aminobenzene)(2-methylpropyl)sulfonamido]-6-hydroxyhexyl]-2-[(dimethylcarbamoyl)amino]-3,3-diphenylpropanamide], the IC50 was 0.44 nM and the Ki was 0.58 nM. `CC(=O)N[C@H](C(=O)NCCCCC(CO)N(CC(C)C)S(=O)(=O)c1ccc(N)cc1)C(c1ccccc1)c1ccccc1` (stereo partly drawn) [(2S)-N-[(5R)-5-[(4-aminobenzene)(2-methylpropyl)sulfonamido]-6-hydroxyhexyl]-2-acetamido-3,3-diphenylpropanamide] gave an IC50 of 1.5 nM. `CC(C)CN(C(CO)CCCCNC(=O)[C@@H](NC(=O)c1ccc[nH]1)C(c1ccccc1)c1ccccc1)S(=O)(=O)c1ccc(N)cc1` (stereo partly drawn) [(2S)-N-[(5R)-5-[(4-aminobenzene)(2-methylpropyl)sulfonamido]-6-hydroxyhexyl]-3,3-diphenyl-2-(1H-pyrrol-2-ylformamido)propanamide] gave an IC50 of 0.43 nM and a Ki of 0.47 nM. With `CC(C)CN(C(CO)CCCCNC(=O)[C@@H](NC(=O)c1ccccn1)C(c1ccccc1)c1ccccc1)S(=O)(=O)c1ccc(N)cc1` (stereo partly drawn) [(2S)-N-[(5R)-5-[(4-aminobenzene)(2-methylpropyl)sulfonamido]-6-hydroxyhexyl]-3,3-diphenyl-2-(pyridin-2-ylformamido)propanamide] the IC50 was 0.46 nM and the Ki was 0.44 nM. `CC(C)CN(C(CO)CCCCNC(=O)[C@@H](NC(=O)c1cccnc1)C(c1ccccc1)c1ccccc1)S(=O)(=O)c1ccc(N)cc1` (stereo partly drawn) [(2S)-N-[(5R)-5-[(4-aminobenzene)(2-methylpropyl)sulfonamido]-6-hydroxyhexyl]-3,3-diphenyl-2-(pyridin-3-ylformamido)propanamide] was tested, and the IC50 was 0.68 nM and the Ki was 0.55 nM. In the case of `CC(C)CN(C(CO)CCCCNC(=O)[C@@H](NC(=O)c1ccncc1)C(c1ccccc1)c1ccccc1)S(=O)(=O)c1ccc(N)cc1` (stereo partly drawn) [(2S)-N-[(5R)-5-[(4-aminobenzene)(2-methylpropyl)sulfonamido]-6-hydroxyhexyl]-3,3-diphenyl-2-(pyridin-4-ylformamido)propanamide], the IC50 is reported as 0.65 nM and the Ki is reported as 0.66 nM. Work on `CC(C)CN(C(CO)CCCCNC(=O)[C@@H](NC(=O)Cc1cccnc1)C(c1ccccc1)c1ccccc1)S(=O)(=O)c1ccc(N)cc1` (stereo partly drawn) [(2S)-N-[(5R)-5-[(4-aminobenzene)(2-methylpropyl)sulfonamido]-6-hydroxyhexyl]-3,3-diphenyl-2-[1-(pyridin-3-yl)acetamido]propanamide] yielded an IC50 of 0.24 nM and a Ki of 0.34 nM.

Same assay, conditions: pH 4.7; 30 °C
`COC(=O)N1Cc2ccccc2C=C1C(=O)NCCCCC(CO)N(CC(C)C)S(=O)(=O)c1ccc(N)cc1` (configuration not stated) [lysine sulfonamide analogue 8] was tested, and the IC50 was 130 nM. `COC(=O)N[C@@H](Cc1ccccc1-c1ccccc1)C(=O)NCCCCC(CO)N(CC(C)C)S(=O)(=O)c1ccc(N)cc1` (stereo partly drawn) [methyl N-[(1S)-1-{[(5R)-5-[(4-aminobenzene)(2-methylpropyl)sulfonamido]-6-hydroxyhexyl]carbamoyl}-2-(2-phenylphenyl)ethyl]carbamate] was tested, and the IC50 was 0.521 nM. `COC(=O)N[C@@H](Cc1cccc2ccccc12)C(=O)NCCCCC(CO)N(CC(C)C)S(=O)(=O)c1ccc(N)cc1` (stereo partly drawn) [methyl N-[(1S)-1-{[(5R)-5-[(4-aminobenzene)(2-methylpropyl)sulfonamido]-6-hydroxyhexyl]carbamoyl}-2-(naphthalen-1-yl)ethyl]carbamate] showed an IC50 of 1.2 nM. With `COC(=O)N[C@@H](Cc1ccc2ccccc2c1)C(=O)NCCCCC(CO)N(CC(C)C)S(=O)(=O)c1ccc(N)cc1` (stereo partly drawn) [methyl N-[(1S)-1-{[(5R)-5-[(4-aminobenzene)(2-methylpropyl)sulfonamido]-6-hydroxyhexyl]carbamoyl}-2-(naphthalen-2-yl)ethyl]carbamate] the IC50 was 1.2 nM. Work on `COC(=O)N[C@@H](Cc1ccccc1)C(=O)NCCCCC(CO)N(CC(C)C)S(=O)(=O)c1ccc(N)cc1` (stereo partly drawn) [methyl N-[(1S)-1-{[(5R)-5-[(4-aminobenzene)(2-methylpropyl)sulfonamido]-6-hydroxyhexyl]carbamoyl}-2-phenylethyl]carbamate] yielded an IC50 of 12 nM.

From BindingDB's records for doi:10.1016/j.bmcl.2006.04.011 (Ambrilia Biopharma, 2006)
